Measurements as given in patent US5614370A, “Assay to identify human C5a antagonists and agonists” (Merck & Co., Inc., priority 1994, dated 1997).
Entries after “also recorded” stand apart in the source; their conditions may differ. Non-standard residues stand in square brackets, D forms with d. Residues, ends and D or L forms follow the SMILES beside them. 1Nal = N[C@@H](Cc1cccc2ccccc12)C(=O)O; NMeF = CN[C@@H](Cc1ccccc1)C(=O)O; Cha = N[C@@H](CC1CCCCC1)C(=O)O; dCha = N[C@H](CC1CCCCC1)C(=O)O

Experiments:
C5a receptor = target: T1, C5a receptor (Homo sapiens, UniProt P21730); assay: Agonist activity over all C5a induced responses (chemotaxis, MPO release, calcium flux, GTPase activity, GTPγ-S binding); type: cell-based; conditions: C089 tested up to and including 100 μM
T1 construct: followed by a 20 μL aliquot of neutrophil membrane; endogenous in cells
T1 sequence (P21730 1-350): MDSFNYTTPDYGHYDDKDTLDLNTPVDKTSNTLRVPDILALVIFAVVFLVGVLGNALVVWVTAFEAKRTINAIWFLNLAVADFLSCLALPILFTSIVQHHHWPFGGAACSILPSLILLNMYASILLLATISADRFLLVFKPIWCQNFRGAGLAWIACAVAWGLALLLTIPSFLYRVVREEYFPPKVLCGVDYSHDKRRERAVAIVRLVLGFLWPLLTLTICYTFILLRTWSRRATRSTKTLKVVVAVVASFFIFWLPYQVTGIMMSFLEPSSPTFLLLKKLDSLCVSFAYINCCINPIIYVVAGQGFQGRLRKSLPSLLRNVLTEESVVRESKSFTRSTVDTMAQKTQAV
Experimental: The EC50 measures the concentration of compound at which a 50% maximal stimulation of a given biological response induced by C5a is achieved (chemotaxis, MPO release, calcium flux, GTPase activity or GTPγ-S binding), and the IC50 is the concentration at which 50% maximal inhibition of C5a binding is achieved.
(§1) This assay was performed on human neutrophils as previously reported and it is a measure of C5a or peptide induced exocytosis (Rollins, T. E. and Springer, M. S. (1985) J. Biol. Chem. 260, 7157-7160).
Ligand induced Ca^2+ fluxes were measured by following the change in Indo-1 induced fluorescence on a FACS analyzer as previously described (Van Riper, G., Siciliano, S. J., Fischer, P. A., Meurer, R., Springer, M. S. and Rosen, H. (1993) J. Exp. Med. 177, 851-856.).
This assay is a modification of the procedure described by Sims et. al. (Sims, T. J., Geissler, F. T. and Page, R. C. (1985) J. lmmunol. Meth. 78, 279-291 ). Chemotaxis was assayed in a 48 well Neuro Probe chamber (Neuro Probe, Bethesda, MD) using ^51 Cr-labelled cells. […] After preforming a gradient for 30 minutes at 37° C., 2×10^5 labelled cells were added to the upper chamber and allowed to migrate at 37° C. for one hour. The upper two polycarbonate filters were then discarded and the formed wells cut from the nitrocellulose membrane. The radioactivity present in these filters is a measure of the number of cells that migrated through both polycarbonate filters.
(§2) The method of Kupper et al. (Kupper, R. W., Dewald, B., Jakobs, K. H., Baggiolini, M. and Gierschik, P. (1992) Biochem. J. 282, 429-434) was adapted for use in microtiter plates. Neutrophil membranes were suspended in 50 mM triethanolamine-HCl, 5 mM MES, pH 7.3, containing 1 mM EDTA, 5 mM MgCl2, 143 mM NaCl, 0.16 % BSA, 1 mM ouabain, 1 mM AMP-PNP, 0.5 mM ATP, 2.5 U/mL creatine phosphokinase,. 10 mM creatine phosphate, 0.1 mM PMSF and 10 ng/mL each of leupeptin, aprotinin and chymostatin. 50 μL of membranes containing 1-5 μg protein were added to 50 μL of the same buffer containing the test agent and 0.25 μM [γ-^32 P]-GTP (2,000 cpm/pmol) in the wells of a U-shaped microtiter plate. After incubation for 15-30 rain at 29° C., 100 μL of a 10% (w/v) charcoal suspension in 100 mM H3 PO4 was added and plates were centrifuged at 2000 rpm for 5 min. 100 μL of the supernatant was transferred to an Optiplate microtiter plate and 100 μL of Microscint-40 scintillation cocktail was added. Plates were counted in a Packard TopCount microtiter plate counter.

human neutrophils = assay: Degranulation, myeloperoxidase (MPO) release from human neutrophils (agonism); type: cell-based; conditions: for EC50: MPO release, read-out: ED50 for degranulation; for EC50/IC50 (degranulation/binding): ratio degranulation EC50 to binding IC50
Experimental: FIG. 5A and 5B. Degranulation and Ca^2+ responses to the hexapeptides. […] The ED50 's for the degranulation are: C5a, 0.5 nM; C028, 0.2 μM; C026, 1 μM. C5a, maximally, released 57% of the total cellular content of MPO. The ability of these molecules to elicite a Ca^2+ -flux is shown in B. The concentrations used for C028 (10 μM), C026 (10 μM), C061 (100 μM) are those which produce a maximal flux. A saturating concentration was also used for C5a (1 nM).
as §1
The functional properties of two of the peptides, C026, and C028, were originally described by Mollison et. al (Mollison, K. W., Krause, R. A., Fey, T. A., Miller, L., Wiedeman, P. e., Kawai, M., Lane, B., Luly, J. R. and Carter, G. W. (1992) FASEB J. 6, A2058). […] We have reinvestigated the degranulating activities of these peptides as measured by the release of myeloperoxidase (MPO) from human neutrophils. […] The EC50 /IC50 (degranulation/binding) for C028 is 8, the same as that measured for C5a (Table II, FIG. 5A). […] However, the difference in activity between C026 and C028 is significant and reproducible. Since the structural difference between the two is the substitution of an aromatic for an aliphatic residue (Phe for Cha) we chose to make additional changes at position 5 which further increased aromaticity. […] To further examine whether the differences in activity between the peptides reflects the increased aromaticity we synthesized a molecule with Leu, an aliphatic amino acid, at position 5 (C068, Table II).

[1] = test system: human neutrophil membranes; assay: GTPase activity in neutrophil membranes (G protein activation); type: biochemical
Source text: FIG. 6A and 6B. Chemotaxis and G protein activation elicited by the hexapeptides.
Since C5a evokes such a plethora of biological responses, it is difficult to ascertain a molecule's overall functional properties from any subset of responses. […] An alternative to investigating all of the responses generated by the C5a receptor, is to determine a molecule's ability to stimulate G protein activation. Such a measurement should give an integrated view of a molecule's agonist properties. As a measure of G protein activation we have investigated the peptides' abilities to stimulate GTPase activity in human neutrophil membranes:
as §2

CC(C)C[C@H](NC(=O)[C@H](CC1CCCCC1)NC(=O)[C@H](CC1CCCCC1)NC(=O)[C@H](C)NC(=O)[C@H](CCCCN)NC(=O)[C@H](Cc1ccccc1)NC(=O)[C@@H](N)Cc1ccc(O)cc1)C(=O)N[C@H](Cc1ccccc1)C(=O)N[C@@H](CCCNC(=N)N)C(=O)O [C009, Tyr Phe Lys Ala Cha Cha Leu dPhe Arg] (H-YFKA[Cha][Cha]L[dF]R-OH)
agonist activity in words, all responses (C5a receptor): C5a agonist

CN[C@@H](Cc1ccccc1)C(=O)N[C@@H](CCCCN)C(=O)N1CCC[C@H]1C(=O)N[C@H](CC1CCCCC1)C(=O)N[C@@H](Cc1ccccc1)C(=O)N[C@H](CCCNC(=N)N)C(=O)O [C026, NMeF--K--P-dCha-F-dR] (H-[NMeF]KP[dCha]F[dR]-OH)
degranulating activity in words (human neutrophils; FIG. 5A): partial agonist for degranution induction; also recorded: retains substantial degranulating activity | EC50 (human neutrophils; FIG. 5A): 1000 nM | MPO release relative to the maximal release produced by C5a or C028 (human neutrophils; maximal effect, FIG. 5A): 50% | EC50/IC50 (degranulation/binding) (human neutrophils): 20 | stimulation of GTPase activity / G protein activation in words ([1]; FIG. 6B): full agonist in chemotaxis or C5a receptor-linked G-protein activation; also recorded: somewhat reduced ability to stimulate the GTP hydrolysis

CN[C@@H](Cc1ccccc1)C(=O)N[C@@H](CCCCN)C(=O)N1CCC[C@H]1C(=O)N[C@H](CC1CCCCC1)C(=O)N[C@@H](CC1CCCCC1)C(=O)N[C@H](CCCNC(=N)N)C(=O)O [C028, MePhe Lys Pro dCha Cha dArg] (H-[NMeF]KP[dCha][Cha][dR]-OH)
degranulating activity in words (human neutrophils; FIG. 5A): full agonist for degranulation | EC50 (human neutrophils; FIG. 5A): 200 nM | EC50/IC50 (degranulation/binding) (human neutrophils): 8 | agonist activity in words, all responses (C5a receptor): almost complete agonists of all of these responses | stimulation of GTPase activity / G protein activation in words ([1]; FIG. 6B): stimulates as much GTPase activity as does C5a | EC50 ([1]; FIG. 6B, read-out: ED50 for stimulation of GTPase activity): 100 nM

CN[C@@H](Cc1ccccc1)C(=O)N[C@@H](CCCCN)C(=O)N1CCC[C@H]1C(=O)N[C@H](CC1CCCCC1)C(=O)N[C@@H](Cc1cccc2ccccc12)C(=O)N[C@H](CCCNC(=N)N)C(=O)O [C061] (H-[NMeF]KP[dCha][1Nal][dR]-OH)
degranulating activity in words (human neutrophils; FIG. 5A): totally devoid of degranulating activity | stimulation of GTPase activity / G protein activation in words ([1]; FIG. 6B): significantly lower GTPase activity

CN[C@@H](Cc1ccccc1)C(=O)N[C@@H](CCCCN)C(=O)N1CCC[C@H]1C(=O)N[C@H](CC1CCCCC1)C(=O)N[C@@H](Cc1c[nH]c2ccccc12)C(=O)N[C@H](CCCNC(=N)N)C(=O)O [C089]
degranulating activity in words (human neutrophils; FIG. 5A): totally devoid of degranulating activity | agonist activity in words, all responses (C5a receptor): without agonist activity in any of the assays; also recorded: do not induce a response; also recorded: completely devoid of agonist activity | stimulation of GTPase activity / G protein activation in words ([1]; FIG. 6B): does not stimulate G protein activation; also recorded: fails entirely to stimulate GTP hydrolysis

B1: C5a: 74 amino acid protein derived from the fifth component of serum complement during complement activation (protein, UniProt P01031 678-751, looked up)
C5a anaphylatoxin: TLQKKIEEIAAKYKHSVVKKCCYDGACVNNDETCEQRAARISLGPRCIKAFTECCVVASQLRANISHKDMQLGR
modifications: C5a anaphylatoxin
release of total cellular MPO (human neutrophils; 0.4 nM C5a or 8 nM IL-8, cells without C089): 22% | EC50 (human neutrophils; FIG. 5A): 0.5 nM | maximal release of total cellular content of MPO (human neutrophils; maximal, FIG. 5A): 57% | EC50/IC50 (degranulation/binding) (human neutrophils): 8 | GTPase activity ([1]; 3 nM C5a, absence of C089, raised from 46): 64 pmol/min/mg protein
